Test results taken from patent publication US20250034135A1, “ANTI-APOPTOTIC PROTEIN BCL-2 INHIBITOR, PHARMACEUTICAL COMPOSITION AND USES THEREOF” (HANGZHOU HEALZEN THERAPEUTICS CO., LTD., priority 2021, published 2025).
pIC50: −log10 of the molar value.

Biological target: BCL2 (Homo sapiens (Human), UniProt P10415)
Experiment: Molecular level activity test of anti-apoptotic protein BCL2 (HTRF, binding to Bim peptide)
Conditions: HTRF, binding of BCL2 to Bim peptide; read-out: BCL2 nM (inhibitory activity, IC50)
Method: The detection of the binding ability between anti-apoptotic protein BCL2 and pro-apoptotic protein Bim was performed using Homogeneous Time-Resolved Fluorescence technology. The reaction of this method occurred in a white shallow 384-well plate, with a total reaction volume of 10 μL. Specifically, it included 2 μL of the compound to be tested (2% DMSO), 4 μL His-tagged recombinant protein, and 4 μL Biotin-tagged BIM protein peptide. After 1 hour of reaction, 5 μL of each Anti-His and streptavidin-tagged XL665 antibody diluents diluted with a detection buffer were added. After incubating at room temperature for 4 hours, the values were read using the Envision multifunctional microplate reader to detect the effect of the compound to be tested on the binding ability of BCL2 to Bim protein peptides.

Sequence of BCL2 (P10415 whole entry): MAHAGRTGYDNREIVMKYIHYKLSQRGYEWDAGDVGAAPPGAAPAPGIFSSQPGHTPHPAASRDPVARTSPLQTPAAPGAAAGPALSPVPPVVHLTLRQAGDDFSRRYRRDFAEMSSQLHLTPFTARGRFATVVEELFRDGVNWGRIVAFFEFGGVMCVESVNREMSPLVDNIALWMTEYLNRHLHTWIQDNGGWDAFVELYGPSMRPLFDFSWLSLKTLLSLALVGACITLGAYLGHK

pIC50, > 8.00:
COc1ccc(CN2CCN(C3CC4(CCN(c5cc(Oc6cnc7[nH]ccc7c6)c(C(=O)NS(=O)(=O)c6cc([N+](=O)[O-])c(NC[C@H]7CC[C@](C)(O)CC7)c7scnc67)cc5F)CC4)C3)[C@H](c3ccccc3C(C)C)C2)cc1 [compound 116, 2-((1H-pyrrolo[2,3-b]pyrid-5-yl)oxy)-5-fluoro-N-((7-((((1r, 4r)-4-hydroxy-4-methylcyclohexyl)methyl)amino)-6-nitrobenzo[d]thiazol-4-yl)sulfonyl)-4-(2-((R)-2-(2-isopropylphenyl)-4-(4-methoxybenzyl)piperazin-1-yl)-7-azaspiro[3.5]non-7-yl)benzamide]
COc1ccc(CN2CCN(C3CC4(CCN(c5cc(Oc6cnc7[nH]ccc7c6)c(C(=O)NS(=O)(=O)c6cc([N+](=O)[O-])c(NC[C@H]7CC[C@](C)(O)CC7)c7c6CCO7)cc5F)CC4)C3)[C@H](c3ccccc3C(C)C)C2)cc1 [compound 119, 2-((1H-pyrrolo[2,3-b]pyrid-5-yl)oxy)-5-fluoro-N-((7-((((1r, 4r)-4-hydroxy-4-methylcyclohexyl)methyl)amino)-6-nitro-2,3-dihydrobenzofuran-4-yl)sulfonyl)-4-(2-((R)-2-(2-isopropylphenyl)-4-(4-methoxybenzyl)piperazin-1-yl)-7-azaspiro[3.5]non-7-yl)benzamide]
CC(C)c1ccccc1[C@@H]1CN(Cc2ccc(C#N)cc2)CCN1C1CC2(CCN(c3cc(Oc4cnc5[nH]ccc5c4)c(C(=O)NS(=O)(=O)c4ccc(NC[C@H]5CC[C@](C)(O)CC5)c([N+](=O)[O-])c4)cc3F)CC2)C1 [compound 214, 2-((1H-pyrrolo[2,3-b]pyrid-5-yl)oxy)-4-(2-((R)-4-(4-cyanobenzyl)-2-(2-isopropylphenyl)piperazin-1-yl)-7-azaspiro[3.5]non-7-yl)-5-fluoro-N-((4-((((1r, 4r)-4-hydroxy-4-methylcyclohexyl)methyl)amino)-3-nitrophenyl)sulfonyl)benzamide]
CC(C)c1ccccc1[C@@H]1CN(Cc2cnn(C(C)C)c2)CCN1C1CC2(CCN(c3cc(Oc4cnc5[nH]ccc5c4)c(C(=O)NS(=O)(=O)c4ccc(NC[C@H]5CC[C@](C)(O)CC5)c([N+](=O)[O-])c4)cc3F)CC2)C1 [compound 230, 2-((1H-pyrrolo[2,3-b]pyrid-5-yl)oxy)-5-fluoro-N-((4-((((1r, 4r)-4-hydroxy-4-methylcyclohexyl)methyl)amino)-3-nitrophenyl)sulfonyl)-4-(2-((R)-4-((1-isopropyl-1H-pyrazole-4-yl)methyl)-2-(2-isopropylphenyl)piperazin-1-yl)-7-azaspiro[3.5]non-7-yl)benzamide]
CC(C)c1ccccc1[C@@H]1CCCN1C1CC2(CCN(c3cc(Oc4cnc5[nH]ccc5c4)c(C(=O)NS(=O)(=O)c4cc([N+](=O)[O-])c(NCC5(F)CCOCC5)c5scnc45)cc3F)CC2)C1 [compound 104, (S)-2-((1H-pyrrolo[2,3-b]pyrid-5-yl)oxy)-5-fluoro-N-((7-(((4-fluorotetrahydro-2H-pyran-4-yl)methyl)amino)-6-nitrobenzo[d]thiazol-4-yl)sulfonyl)-4-(2-(2-(2-isopropylphenyl)pyrrolidin-1-yl)-7-azaspiro[3.5]non-7-yl)benzamide]
CC(C)c1ccccc1[C@@H]1CN(Cc2ccc(C3CC3)cc2)CCN1C1CC2(CCN(c3cc(Oc4cnc5[nH]ccc5c4)c(C(=O)NS(=O)(=O)c4ccc(NC[C@H]5CC[C@](C)(O)CC5)c([N+](=O)[O-])c4)cc3F)CC2)C1 [compound 219, 2-((1H-pyrrolo[2,3-b]pyrid-5-yl)oxy)-4-(2-((R)-4-(4-cyclopropylbenzyl)-2-(2-isopropylphenyl)piperazin-1-yl)-7-azaspiro[3.5]non-7-yl)-5-fluoro-N-((4-((((1r, 4r)-4-hydroxy-4-methylcyclohexyl)methyl)amino)-3-nitrophenyl)sulfonyl)benzamide]
(S)-2-((1H-pyrrolo[2,3-b]pyrid-5-yl)oxy)-N-(7-(((4-fluorotetrahydro-2H-pyran-4-yl)methyl)amino)-6-nitro-1H-benzo[d]imidazol-4-yl)sulfonyl)-4-(2-(2-(2-isopropylphenyl)pyrrolidin-1-yl)-7-azaspiro[3.5]non-7-yl)benzamide [compound 005]
COc1ccc(CN2CCN(C3CC4(CCN(c5cc(Oc6cnc7[nH]ccc7c6)c(C(=O)NS(=O)(=O)c6ccc(NCC7(F)CCOCC7)c([N+](=O)[O-])c6)cc5F)CC4)C3)[C@@H](c3ccccc3C(C)C)C2)cc1 [compound 153, (S)-2-((1H-pyrrolo[2,3-b]pyrid-5-yl)oxy)-5-fluoro-N-((4-(((4-fluorotetrahydro-2H-pyran-4-yl)methyl)amino)-3-nitrophenyl)sulfonyl)-4-(2-(2-(2-isopropylphenyl)-4-(4-methoxybenzyl)piperazin-1-yl)-7-azaspiro[3.5]non-7-yl)benzamide]
CC(C)c1ccccc1[C@@H]1CCCN1C1CC2(CCN(c3cc(Oc4cnc5[nH]ccc5c4)c(C(=O)NS(=O)(=O)c4cc([N+](=O)[O-])c(NCC5(F)CCN(C(=O)CN(C)C)CC5)c5[nH]cnc45)cc3F)CC2)C1 [compound 030, (S)-2-((1H-pyrrolo[2,3-b]pyrid-5-yl)oxy)-N-((7-(((1-(dimethylglycyl)-4-fluoropiperid-4-yl)methyl)amino)-6-nitro-1H-benzo[d]imidazol-4-yl)sulfonyl)-5-fluoro-4-(2-(2-(2-isopropylphenyl)pyrrolidin-1-yl)-7-azaspiro[3.5]non-7-yl)benzamide]
COc1ccc(CN2CCN(C3CC4(CCN(c5ccc(C(=O)NS(=O)(=O)c6cc([N+](=O)[O-])c(NCC7(F)CCN(C(C)C)CC7)c7[nH]cnc67)c(Oc6cnc7[nH]ccc7c6)c5)CC4)C3)C(c3ccccc3C(C)C)C2)cc1 (stereo not drawn) [compound 048, 2-((1H-pyrrolo[2,3-b]pyrid-5-yl)oxy)-N-((7-(((4-fluoro-1-isopropylpiperid-4-yl)methyl)amino)-6-nitro-1H-benzo[d]imidazol-4-yl)sulfonyl)-4-(2-(2-(2-isopropylphenyl)-4-(4-methoxybenzyl)piperazin-1-yl)-7-azaspiro[3.5]non-7-yl)benzamide]
COc1cc(CN2CCN(C3CC4(CCN(c5ccc(C(=O)NS(=O)(=O)c6cc([N+](=O)[O-])c(NCC7(F)CCOCC7)c7c6OCO7)c(Oc6cnc7[nH]ccc7c6)c5)CC4)C3)[C@H](c3ccccc3C(C)C)C2)ccc1C1CC1 [compound 173, (R)-2-((1H-pyrrolo[2,3-b]pyrid-5-yl)oxy)-4-(2-(4-(4-cyclopropyl-3-methoxybenzyl)-2-(2-isopropylphenyl)piperazin-1-yl)-7-azaspiro[3.5]non-7-yl)-N-((7-(((4-fluorotetrahydro-2H-pyran-4-yl)methyl)amino)-6-nitrobenzo[d][1,3]dioxocyclopent-4-yl)sulfonyl)benzamide]
COc1ccc(CN2CCN(C3CC4(CCN(c5ccc(C(=O)NS(=O)(=O)c6cc([N+](=O)[O-])c(NCC7(F)CCOCC7)c7c6OCO7)c(Oc6cnc7[nH]ccc7c6)c5)CC4)C3)[C@H](c3ccccc3C(C)C)C2)cn1 [compound 166, (R)-2-((1H-pyrrolo[2,3-b]pyrid-5-yl)oxy)-N-((7-(((4-fluorotetrahydro-2H-pyran-4-yl)methyl)amino)-6-nitrobenzo[d][1,3]dioxocyclopent-4-yl)sulfonyl)-4-(2-(2-(2-isopropylphenyl)-4-((6-methoxypyrid-3-yl)methyl)piperazin-1-yl)-7-azaspiro[3.5]non-7-yl)benzamide]
CC(C)c1ccccc1[C@@H]1CN(Cc2ccc(F)cc2)CCN1C1CC2(CCN(c3ccc(C(=O)NS(=O)(=O)c4cc([N+](=O)[O-])c(NCC5(F)CCOCC5)c5c4OCO5)c(Oc4cnc5[nH]ccc5c4)c3)CC2)C1 [compound 167, (R)-2-((1H-pyrrolo[2,3-b]pyrid-5-yl)oxy)-4-(2-(4-(4-fluorobenzyl)-2-(2-isopropylphenyl)piperazin-1-yl)-7-azaspiro[3.5]non-7-yl)-N-((7-(((4-fluorotetrahydro-2H-pyran-4-yl)methyl)amino)-6-nitrobenzo[d][1,3]dioxocyclopent-4-yl)sulfonyl)benzamide]
COc1ccc(CN2CCN(C3CC4(CCN(c5cc(Oc6cnc7[nH]ccc7c6)c(C(=O)NS(=O)(=O)c6cc([N+](=O)[O-])c(NCC7(F)CCOCC7)c7c6OCO7)cn5)CC4)C3)[C@H](c3ccccc3C(C)C)C2)cc1 [compound 132, (R)-4-((1H-pyrrolo[2,3-b]pyrid-5-yl)oxy)-N-((7-(((4-fluorotetrahydro-2H-pyran-4-yl)methyl)amino)-6-nitrobenzo[d][1,3]dioxocyclopent-4-yl)sulfonyl)-6-(2-(2-(2-isopropylphenyl)-4-(4-methoxybenzyl)piperazin-1-yl)-7-azaspiro[3.5]non-7-yl) nicotinamide]
COc1ccc(CN2CCN(C3CC4(CCN(c5cc(Oc6cnc7[nH]ccc7c6)c(C(=O)NS(=O)(=O)c6cc([N+](=O)[O-])c(NCC7(F)CCN(C(C)C)CC7)c7[nH]cnc67)cc5F)CC4)C3)C(c3ccccc3C(C)C)C2)cc1 (stereo not drawn) [compound 073, 2-((1H-pyrrolo[2,3-b]pyrid-5-yl)oxy)-5-fluoro-N-((7-(((4-fluoro-1-isopropylpiperid-4-yl)methyl)amino)-6-nitro-1H-benzo[d]imidazol-4-yl)sulfonyl)-4-(2-(2-(2-isopropylphenyl)-4-(4-methoxybenzyl)piperazin-1-yl)-7-azaspiro[3.5]non-7-yl)benzamide]
